Results: US20060216356A1, “Detection of antibacterial activity in excretory secretory product of adult trichuris suis” (Board of Trustees of Michigan State University, priority 2000, published 2006)
≈ marks a conversion by molar mass, not a printed value. Structures can show the parent of a compound that is named as a salt.

Columns and labels:
[1] = n-octanol/water partition coefficient (log PC) of antibiotics; type: physicochemical; conditions: in parentheses beside log PC
Experimental: Consideration of CAP contamination. […] Using the worst-case scenario, the predicted maximum amount of CAP absorbed and how much would be released into the medium if the whipworms dissolved (i.e., released 100%) was estimated. […] It was assumed that the aggregate whipworm volume of these eccentrically shaped nematodes occupied 4% of the incubation well volume (4 whipworms/ml at about 10 μl/whipworm).

Campylobacter jejuni [2] = assay: Effect of boiling on antibiotics, qualitative broth microdilution assay; type: cell-based; conditions: 1x concentration, boiled for 10 minutes
Experimental: A broth microdilution method in 96 well plates was used to obtain qualitative and quantitative measures of antibacterial activity. Qualitatively, 50 μl samples of ESP were added to 50 μl suspensions of Campylobacter jejuni (containing about 5×10^5 cfu, as determined by standard serial dilution and plating) in 96 well plates. Plates were evaluated for growth as indicated by the presence of either turbidity or pellet of bacterial cells in the bottoms of U-shaped wells after 48 hr incubation. […] The size of the drug was also taken into consideration. Additionally, an experiment to assess the heat stability of the antibiotics was performed.

[3] = compiled from a drug database at Upjohn; cited from earlier work
Campylobacter jejuni [4] = assay: Broth microdilution MIC/MBC and antibacterial titer on Campylobacter jejuni; type: cell-based
Experimental: Bacterial strains and media. The antibacterial activity in Trichuris suis ESP was originally observed using Campylobacter jejuni (ATCC 33292), and this was the strain on which most experiments were performed for this preliminary characterization. Several Campylobacter jejuni and Campylobacter coli isolates were used for MIC determinations (Table 1).
Additional quality control organisms routinely used for antimicrobial susceptibility assays were tested, including Enterococcus faecalis (ATCC 29212), Staphylococcus aureus (ATCC 25923), Escherichia coli (ATCC 25922), Pseudomonas aeruginosa (ATCC 27853), and Streptococcus pneumonia (ATCC 49619). […]
(§1) A broth microdilution method in 96 well plates was used to obtain qualitative and quantitative measures of antibacterial activity. Qualitatively, 50 μl samples of ESP were added to 50 μl suspensions of Campylobacter jejuni (containing about 5×10^5 cfu, as determined by standard serial dilution and plating) in 96 well plates. Plates were evaluated for growth as indicated by the presence of either turbidity or pellet of bacterial cells in the bottoms of U-shaped wells after 48 hr incubation.
To quantify activity and determine the minimum inhibitory concentration (MIC) of ESP against test organisms, serial two-fold dilutions of 20×-concentrated ESP were prepared in 50 μl volumes of MHB (n=2). […]

Campylobacter jejuni [5] = assay: HPLC fractionation with qualitative broth microdilution bioassay of fractions; type: cell-based; conditions: C18 reverse phase HPLC, 5-80% ACN gradient in TFA
Experimental: as §1
High performance liquid chromatography. A Model 173 high performance liquid chromatography (HPLC) system (Perkin Elmer Applied Biosystems, Inc., Foster City, Calif.) at the Michigan State University Macromolecular Structure Facility was used to fractionate Trichuris suis ESP for preliminary isolation of the antibacterial activity (Hearn, Meth. Enzymol. 104: 190-212 (1984)). Samples (150 μl) of ESP were mixed with an equal volume of 0.1% trifluoroacetic acid (TFA) and centrifuged at full speed (11,000×g) at room temperature for 15 minutes. […] Absorbance of the eluate was monitored at 214 nm, and fractions were collected manually as peaks were detected. […]

| Compound | Concentrating factor [1] [x] | Antibacterial activity after boiling (Campylobacter jejuni [2]) | log PC (n-octanol/water partition coefficient) [3] | MIC (Campylobacter jejuni [4]) [µg/mL] | antibacterial activity of HPLC fractions (Campylobacter jejuni [5]) |
| --- | --- | --- | --- | --- | --- |
| CC1(C)S[C@@H]2[C@H](NC(=O)Cc3ccccc3)C(=O)N2[C@H]1C(=O)O [Penicillin G] | 71 | − | 185 |  |  |
| [H]/N=C(/N)N[C@H]1[C@H](O)[C@@H](O)[C@H](O[C@@H]2O[C@@H](C)[C@](O)(C=O)[C@H]2O[C@@H]2O[C@@H](CO)[C@H](O)[C@@H](O)[C@@H]2NC)[C@@H](N/C(N)=N\[H])[C@@H]1O [Streptomycin sulfate] |  | + | −9.53(—) |  |  |
| O=C(N[C@H](CO)[C@H](O)c1ccc([N+](=O)[O-])cc1)C(Cl)Cl [Chloramphenicol] |  | + |  | ~2 (≈ 6.19 µM) | one fraction with antibacterial activity |
